# Laboratory results reported in patent US20170343549A9, “METHODS FOR DETECTING AND MONITORING COLORECTAL CANCER” (REGENTS OF THE UNIVERSITY OF MINNESOTA, priority 2015, published 2017).
# “Also recorded” adds a separate entry of the source.
# Key:
# Format in all cases: in vivo, human
# [1] = test system: the other four PGs; test: Circulating levels of the other four PGs in FAP patients, regular aspirin users vs nonusers (plasma enzyme immunoassay); settings: regular aspirin use vs nonusers, FIG. 4A
# Description: (§1) All clinical studies using human subjects or human materials were approved by the Mayo Clinic review board. Volunteers were recruited by the Gastroenterology and Hepatology group at Mayo Clinic, Rochester, Minn. Individuals in the healthy control group (n=16) were normal patients who underwent colonoscopy screening. Familial adenomatous polyposis (FAP) patients who reported taking two or more standard (325 mg) aspirin tablets per week were classified as regular aspirin users (n=14) and those reporting consumption of less aspirin were classified as aspirin nonusers (n=24) (Chan et al., 2007. N Engl J Med 356 (21):2131-2142). Individuals in the sporadic colorectal cancer group (n=20) were patients who were diagnosed with colorectal cancer, but without a family history of colorectal cancer. Other inclusion criteria were as follows: age at 18-75 years old; gender ratio approximately 1:1; and a non-smoking history. The measurement of PGs in plasma from patients was performed using enzyme immunoassay kits from Cayman Chemical Co. (Ann Arbor, Mich.) following the manufacturer's instructions. Briefly, blood was collected from a vein in the arm just inside the elbow using a 22 gauge needle. Before blood collection, the tourniquet was applied about three inches above the selected puncture site. […]
# [2] = test system: TBXA2R; test: Immunohistochemistry staining of TBXA2R in polyps of FAP patients, aspirin users vs nonusers; settings: epithelial cells from polyps, aspirin intake, FIG. 4B
# Description: (§2) All clinical studies using human subjects or human materials were approved by the Mayo Clinic review board. Volunteers were recruited by the Gastroenterology and Hepatology group at Mayo Clinic, Rochester, Minn. Individuals in the healthy control group (n=16) were normal patients who underwent colonoscopy screening. Familial adenomatous polyposis (FAP) patients who reported taking two or more standard (325 mg) aspirin tablets per week were classified as regular aspirin users (n=14) and those reporting consumption of less aspirin were classified as aspirin nonusers (n=24) (Chan et al., 2007. N Engl J Med 356 (21):2131-2142). Individuals in the sporadic colorectal cancer group (n=20) were patients who were diagnosed with colorectal cancer, but without a family history of colorectal cancer. Other inclusion criteria were as follows: age at 18-75 years old; gender ratio approximately 1:1; and a non-smoking history.
# (§3) Surgically resected human colon tissues at all clinical stages were fixed in 10% formalin overnight at room temperature. […] Immunohistochemistry staining intensity was quantified by calculating the integrated optical density (IOD, sum) of area of interest using the Image Pro-Plus 7.0 software program (Media Cybernetics, Inc., Rockville, Md.).
# [3] = test system: TBXAS1; test: Immunohistochemistry staining of TBXAS1 in polyps of FAP patients, aspirin users vs nonusers; settings: epithelial cells from polyps, aspirin intake, FIG. 4B
# Description: as §2, §3
# [4] = test system: circulating TXA2; test: Circulating TXA2 level in FAP patients, regular aspirin users vs nonusers (plasma enzyme immunoassay); settings: regular aspirin use (two or more 325 mg tablets per week, n=14) vs nonusers (n=24), FIG. 4A
# Description: as §1
# [5] = test system: Ki-67; test: Immunohistochemistry staining of Ki-67 in polyps of FAP patients, aspirin users vs nonusers; settings: epithelial cells from polyps, aspirin intake, FIG. 4B
# Description: as §2, §3
structure (smiles),measurement,setting,value
CC(=O)Oc1ccccc1C(=O)O [aspirin],levels of the other four PGs,[1],little effect
same,expression of TBXA2R,[2],lower expression
same,expression of TBXAS1,[3],lower expression
same,circulating TXA2 level,[4],significant (p<0.001) decrease; also recorded: significantly decreased
same,expression of Ki-67,[5],lower expression
